“And” between values parts separate entries of the source, which are not always exact repeats. Equal entries are not always repeated. Where two headings read alike, the source gives them in different places.
What was measured:
[1] = test system: LPS-induced IL-6 production in RAW 264.7 cells; conditions: LPS-activated RAW 264.7; for IL-6 level: cells treated with 25 μM compound
human recombinant COX-2 = target: T1, human recombinant COX-2 (Homo sapiens, UniProt P35354); experiment: In vitro COX-2 inhibitory assay; format: biochemical; conditions: for Enhancement of anti-COX-2 activity by p-Cl on benzylidine: compared with unsubstituted compounds 4b, 4c, 4g, 4h respectively
T1 sequence (P35354 18-604): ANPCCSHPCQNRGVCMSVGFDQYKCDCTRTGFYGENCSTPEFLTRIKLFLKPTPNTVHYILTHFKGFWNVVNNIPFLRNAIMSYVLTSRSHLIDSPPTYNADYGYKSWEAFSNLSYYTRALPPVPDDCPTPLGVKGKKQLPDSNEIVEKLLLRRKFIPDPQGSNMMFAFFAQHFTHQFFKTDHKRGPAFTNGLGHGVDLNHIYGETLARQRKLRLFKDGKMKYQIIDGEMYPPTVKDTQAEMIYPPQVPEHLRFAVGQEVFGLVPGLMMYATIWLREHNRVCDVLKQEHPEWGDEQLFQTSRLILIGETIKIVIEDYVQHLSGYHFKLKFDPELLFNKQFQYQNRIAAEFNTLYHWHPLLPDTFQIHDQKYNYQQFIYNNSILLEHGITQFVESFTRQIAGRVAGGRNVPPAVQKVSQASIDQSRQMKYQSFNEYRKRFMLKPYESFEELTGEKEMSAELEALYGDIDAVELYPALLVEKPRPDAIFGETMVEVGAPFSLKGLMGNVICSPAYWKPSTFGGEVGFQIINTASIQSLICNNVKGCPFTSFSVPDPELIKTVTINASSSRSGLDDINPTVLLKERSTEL

soybean 15-LOX = target: T2, soybean 15-LOX (Glycine max, UniProt P08170); experiment: In vitro 15-LOX inhibitory assay; format: biochemical
T2 sequence (P08170 1-839): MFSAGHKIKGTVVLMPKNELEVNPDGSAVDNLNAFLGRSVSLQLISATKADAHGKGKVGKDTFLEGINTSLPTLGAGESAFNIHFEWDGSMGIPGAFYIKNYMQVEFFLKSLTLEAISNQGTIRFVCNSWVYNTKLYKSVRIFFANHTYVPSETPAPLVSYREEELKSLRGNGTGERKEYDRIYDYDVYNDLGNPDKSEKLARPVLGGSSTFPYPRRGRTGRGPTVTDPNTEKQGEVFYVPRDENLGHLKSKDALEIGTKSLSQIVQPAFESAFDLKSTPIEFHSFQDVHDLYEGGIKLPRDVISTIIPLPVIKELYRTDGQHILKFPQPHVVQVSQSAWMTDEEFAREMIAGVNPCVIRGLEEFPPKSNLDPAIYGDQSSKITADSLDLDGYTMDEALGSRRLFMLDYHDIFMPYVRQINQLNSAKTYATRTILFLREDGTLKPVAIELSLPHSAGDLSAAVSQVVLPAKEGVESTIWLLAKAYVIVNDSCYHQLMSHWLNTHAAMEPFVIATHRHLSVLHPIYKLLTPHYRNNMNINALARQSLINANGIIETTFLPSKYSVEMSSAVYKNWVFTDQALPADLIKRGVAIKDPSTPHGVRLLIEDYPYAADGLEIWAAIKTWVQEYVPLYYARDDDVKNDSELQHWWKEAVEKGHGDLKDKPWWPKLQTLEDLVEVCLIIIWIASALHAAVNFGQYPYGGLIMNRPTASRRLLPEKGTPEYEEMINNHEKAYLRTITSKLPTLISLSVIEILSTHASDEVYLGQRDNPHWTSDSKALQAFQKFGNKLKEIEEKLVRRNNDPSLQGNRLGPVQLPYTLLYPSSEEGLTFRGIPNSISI

ovine COX-1 = target: T3, ovine COX-1 (Ovis aries, UniProt P05979); experiment: In vitro COX-1 inhibitory assay; format: biochemical
T3 sequence (P05979 25-600): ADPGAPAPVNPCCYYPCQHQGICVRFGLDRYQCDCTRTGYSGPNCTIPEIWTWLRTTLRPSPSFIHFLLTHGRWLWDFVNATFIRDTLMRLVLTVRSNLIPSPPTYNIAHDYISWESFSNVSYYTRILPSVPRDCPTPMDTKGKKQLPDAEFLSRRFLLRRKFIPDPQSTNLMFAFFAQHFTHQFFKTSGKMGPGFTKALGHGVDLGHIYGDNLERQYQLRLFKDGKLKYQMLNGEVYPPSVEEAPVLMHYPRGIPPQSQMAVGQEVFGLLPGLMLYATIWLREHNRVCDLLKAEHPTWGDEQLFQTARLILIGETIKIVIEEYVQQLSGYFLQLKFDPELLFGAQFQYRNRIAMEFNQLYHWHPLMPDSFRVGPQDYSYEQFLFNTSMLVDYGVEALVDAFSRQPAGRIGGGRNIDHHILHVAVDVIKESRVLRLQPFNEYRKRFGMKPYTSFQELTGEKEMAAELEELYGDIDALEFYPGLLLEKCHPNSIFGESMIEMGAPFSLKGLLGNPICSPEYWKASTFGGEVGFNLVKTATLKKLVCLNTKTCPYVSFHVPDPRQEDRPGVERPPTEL

[2] = test system: LPS-induced TNF-α production in RAW 264.7 cells; conditions: for TNF-α level: cells treated with 25 μM compound
[3] = test system: LPS-induced ROS production in RAW 264.7 cells; conditions: read-out: ROS (IC50), LPS (1 μg/mL) 18 h, mean ± SEM
[4] = test system: NF-κB activation in RAW 264.7 macrophages; experiment: NF-κB activation in LPS-activated RAW 264.7 macrophages; format: cell-based, murine; conditions: 25 μM pretreatment, Western blot
Cell viability assay = format: cell-based, murine; conditions: mouse, RAW 264.7 macrophage cells
[5] = test system: LPS-induced ROS production in RAW 264.7 cells; experiment: cells; conditions: Mus musculus, RAW264.7, 18 h, read-out: ROS (IC50)
[6] = read-out: 15-LOX IC50, soybean 15-LOX
[7] = read-out: COX1, IC50, ovine COX-1, mean ± SEM

| Structure (SMILES) | IL-6 level [1] | SI (Selectivity index = COX-1 IC50/COX-2 IC50) (human recombinant COX-2) | IC50 (human recombinant COX-2; read-out: COX2, IC50) [µM] | IC50 (soybean 15-LOX; [6]) [µM] | IC50 (ovine COX-1; [7]) [µM] | TNF-α level ([2]; LPS-activated RAW 264.7) | IC50 [3] [µM] | Lowering of IL-6 level [1] | IC50 (human recombinant COX-2) [µM] | SI (Selectivity index = COX-1 IC50/COX-2 IC50) (human recombinant COX-2; COX-1 IC50/COX-2 IC50) | LPS-mediated increase in NF-κB activation (phospho/total NF-κB) [4] | viability at 50 µM (Cell viability assay) [%] | IC50 (soybean 15-LOX) [µM] | IC50 (ovine COX-1) [µM] | Lowering of TNF-α level ([2]; LPS-activated RAW 264.7) | IC50 [5] [µM] | TNF-α inhibition, fold more potent than celecoxib ([2]; vs celecoxib) [fold] | Enhancement of anti-COX-2 activity by p-Cl on benzylidine (human recombinant COX-2) [folds] |
| --- | --- | --- | --- | --- | --- | --- | --- | --- | --- | --- | --- | --- | --- | --- | --- | --- | --- | --- |
| O=C(CSC1=N/C(=C\c2ccccc2)C(=O)N1c1ccccc1)Nc1ccc(Cl)cc1 [Compound 4c, (Z)-2-[(4-Benzylidene-5-oxo-1-phenyl-4,5-dihydro-1H-imidazol-2-yl)thio]-N-(4-chlorophenyl) acetamide] | 49.08 ± 23.20 pg/mL | 64.62 | 0.14 ± 0.062 | 3.24 ± 1.46 | 9.12 ± 1.4 | 49.81 ± 23.20 pg/mL | 61.6 ± 1.51 | – | – | – | – | – | – | – | – | – | – | – |
| O=C(CSC1=N/C(=C\c2ccccc2)C(=O)N1c1ccccc1)Nc1ccc(Br)cc1 [Compound 4d, (Z)-2-[(4-Benzylidene-5-oxo-1-phenyl-4,5-dihydro-1H-imidazol-2-yl)thio]-N-(4-bromophenyl) acetamide] | 26.35 pg/mL and 26.35 ± 4.22 pg/mL | 64.13 | 0.13 ± 0.071 | 5.14 ± 2.48 | 8.14 ± 1.53 | 27.08 pg/mL and 27.08 ± 4.22 pg/mL | 62.1 ± 1.51 | – | – | – | – | – | – | – | – | – | – | – |
| Cc1ccc(NC(=O)CSC2=N/C(=C\c3ccccc3)C(=O)N2c2ccccc2)cc1 [Compound 4e, (Z)-2-[(4-Benzylidene-5-oxo-1-phenyl-4,5-dihydro-1H-imidazol-2-yl)thio]-N-(4-tolyl) acetamide] | 34.33 ± 1.82 pg/mL | 90.85 | 0.1 ± 0.048 | 5.14 ± 2.48 | 9.12 ± 1.4 | 58.19 ± 23.16 pg/mL | 118 ± 2.36 | – | – | – | – | – | – | – | – | – | – | – |
| COc1ccc(NC(=O)CSC2=N/C(=C\c3ccccc3)C(=O)N2c2ccccc2)cc1 [Compound 4f, (Z)-2-[(4-Benzylidene-5-oxo-1-phenyl-4,5-dihydro-1H-imidazol-2-yl)thio]-N-(4-methoxyphenyl)acetamide] | 22.21 pg/mL and 22.21 ± 6.32 pg/mL | – | – | – | – | 22.94 ± 6.32 pg/mL | – | ~ 80% | 0.08 ± 0.04 | 131.59 | attenuated | 83 to 105 | 3.96 ± 1.49 | 11 ± 1.53 | ~ 80% | 22.8 ± 1.32 | – | – |
| COc1cc(NC(=O)CSC2=N/C(=C\c3ccccc3)C(=O)N2c2ccccc2)cc(OC)c1OC [Compound 4g, (Z)-2-[(4-Benzylidene-5-oxo-1-phenyl-4,5-dihydro-1H-imidazol-2-yl)thio]-N-(3,4,5-trimethoxyphenyl) acetamide] | 11.51 ± 3.09 pg/mL | 68.07 | 0.14 ± 0.073 | 2.82 ± 1.27 | 9.83 ± 1.65 | 12.23 pg/mL and 12.23 ± 3.09 pg/mL | 65.9 ± 1.55 | – | – | – | – | – | – | – | – | – | ~2 | – |
| O=C(CSC1=N/C(=C\c2ccc(Cl)cc2)C(=O)N1c1ccccc1)Nc1ccc(F)cc1 [Compound 4k, (Z)-2-{[4-(4-Chlorobenzylidene)-5-oxo-1-phenyl-4,5-dihydro-1H-imidazol-2-yl]thio}-N-(4-fluorophenyl)acetamide] | 27.57 ± 14.76 pg/mL | – | – | – | – | 28.29 ± 14.76 pg/mL | – | – | 0.07 ± 0.034 | 186.28 | – | 83 to 105 | 2.17 ± 1.04 | 13 ± 1.82 | – | 71 ± 1.55 | – | 1.85 |
| O=C(CSC1=N/C(=C\c2ccc(Cl)cc2)C(=O)N1c1ccccc1)Nc1ccc(Cl)cc1 [Compound 4l, (Z)-2-{[4-(4-Chlorobenzylidene)-5-oxo-1-phenyl-4,5-dihydro-1H-imidazol-2-yl]thio}-N-(4-chlorophenyl)acetamide] | 25.57 pg/mL and 25.75 ± 5.33 pg/mL | – | – | – | – | 26.47 ± 5.33 pg/mL | – | – | 0.08 ± 0.035 | 154.73 | attenuated | 83 to 105 | 2.69 ± 1.29 | 12.3 ± 1.84 | – | 52.7 ± 1.35 | – | 1.75 |

From PMC11073913 (Archiv der Pharmazie, 2024)
